The term Ki denotes the dissociation constant of the complex between target and ligand, obtained from inhibition or displacement. A lower Ki goes with a stronger hold on the target.

Assay [1] has as its system α-glucosidase. The assay can be described thus: α-glucosidase inhibitory assay. In kind it is biochemical, Saccharomyces cerevisiae.
Assay [2] concerns α-glucosidase. The assay can be described thus: in vitro kinetic analysis of α-glucosidase inhibition. In kind it is biochemical, Saccharomyces cerevisiae.

As to `CCNC(=S)NC1c2ccccc2CC1O` (stereo not drawn) [Compound 2d, 1-ethyl-3-(2-hydroxy-2,3-dihydro-1H-inden-1-yl) thiourea], in the assay with α-glucosidase [1], the “α-glucosidase inhibitory activity (in words)” value was “inactive”. For `COc1ccc(NC(=S)NC2c3ccccc3CC2O)cc1` (stereo not drawn) [Compound 2h, 1-(2-hydroxy-2,3-dihydro-1 H-inden-1-yl)-3-(4-methoxyphenyl) thiourea], in the assay with α-glucosidase [2] (Km increases, Vmax unchanged), the mode of inhibition entry was “competitive”. Besides, the affinity on α-glucosidase [2] (inhibitor 5.00, 10.00, 20.00 µM, substrate 4-nitrophenyl α-D-glucopyranoside) corresponds to a Ki of 7.39 ± 0.088 µM.

These data come from article PMC12770330 (Scientific Reports, 2025).
